Experimental data: ChEMBL document CHEMBL1158551, “Click reaction synthesis of carbohydrate derivatives from ristocetin aglycon with antibacterial and antiviral activity” (Bioorg Med Chem Lett, 2010)
Values after ≈ are worked out from the molar mass of the structure shown. Active and inactive are the calls of the source. The rule behind the calls is not given here.

What was measured:
[1] = system: Staphylococcus epidermidis; assay: Antibacterial activity against Staphylococcus epidermidis by broth microdilution method; type: functional
[2] = system: Enterococcus faecalis; assay: Antibacterial activity against vancomycin and teicoplanin-resistant Enterococcus faecalis 15376 expressing VanA gene by broth microdilution method; type: functional
[3] = system: Enterococcus faecalis; assay: Antibacterial activity against vancomycin and teicoplanin-sensitive Enterococcus faecalis ATCC 29212 by broth microdilution method; type: functional
[4] = system: Influenza A virus; assay: Antiviral activity against influenza A virus H1N1 assessed as cell viability by cell based MTS assay; type: functional, organism-based
[5] = system: Influenza A virus; assay: Antiviral activity against Influenza A virus H3N2 assessed as cell viability by cell based MTS assay; type: functional, organism-based
[6] = system: Staphylococcus aureus; assay: Antibacterial activity against methicillin-[…] Staphylococcus aureus ATCC 33591 by broth microdilution method; type: functional
[7] = system: Influenza A virus; assay: Antiviral activity against Influenza A virus H3N2 assessed as inhibition of viral induced cytopathic effect; type: functional, organism-based
[8] = system: Platelet; assay: Inhibition of ristocetin-induced platelet aggregation at 0.1 mg/ml; type: functional, cell-based
[9] = system: Staphylococcus aureus; assay: Antibacterial activity against methicillin-[…] Staphylococcus aureus ATCC 29213 by broth microdilution method; type: functional
[10] = system: Bacillus subtilis; assay: Antibacterial activity against Bacillus subtilis ATCC 6633 by broth microdilution method; type: functional
[11] = system: Staphylococcus epidermidis; assay: Antibacterial activity against biofilm positive Staphylococcus epidermidis ATCC 35984; type: functional
[12] = system: Influenza A virus; assay: Antiviral activity against influenza A virus H1N1 assessed as inhibition of viral induced cytopathic effect; type: functional, organism-based
[13] = system: Influenza B virus; assay: Antiviral activity against influenza B virus assessed as cell viability by cell based MTS assay; type: functional, organism-based
[14] = system: Enterococcus faecalis; assay: Antibacterial activity against vancomycin-resistant and teicoplanin-sensitive Enterococcus faecalis ATCC 5129 expressing VanB gene by broth microdilution method; type: functional
[15] = system: Influenza B virus; assay: Antiviral activity against influenza B virus assessed as inhibition of viral induced cytopathic effect; type: functional, organism-based

| SMILES | MBC [1] [µg/mL] | MIC [1] [µg/mL] | MBC [2] [µg/mL] | MIC [2] [µg/mL] | MBC [3] [µg/mL] | MIC [3] [µg/mL] | EC50 [4] [µM] | EC50 [5] [µM] | MBC [6] [µg/mL] | MIC [6] [µg/mL] | EC50 [7] [µM] | MBC [9] [µg/mL] | MIC [9] [µg/mL] | MBC [10] [µg/mL] | MIC [10] [µg/mL] | MBC [11] [µg/mL] | MIC [11] [µg/mL] | EC50 [12] [µM] | EC50 [13] [µM] | EC50 [15] [µM] | other results |
| --- | --- | --- | --- | --- | --- | --- | --- | --- | --- | --- | --- | --- | --- | --- | --- | --- | --- | --- | --- | --- | --- |
| COC(=O)[C@@H]1NC(=O)[C@H]2NC(=O)[C@H](NC(=O)[C@@H]3NC(=O)[C@H]4NC(=O)[C@H](NC(=O)[C@H](n5cc(CO[C@H]6O[C@H](CO)[C@@H](O[C@H]7O[C@H](CO)[C@@H](O)[C@H](O)[C@H]7O)[C@H](O)[C@H]6O)nn5)c5ccc(O)c(c5)Oc5cc4cc(O)c5C)[C@H](O)c4ccc(cc4)Oc4cc3cc(c4O)Oc3ccc(cc3)[C@H]2O)c2ccc(O)c(c2)-c2c(O)cc(O)cc21 | 2 (≈ 1.27 µM) | 1 (≈ 0.633 µM) | 256 (≈ 162 µM) | 8 (≈ 5.06 µM) | 256 (≈ 162 µM) | 4 (≈ 2.53 µM) | 20 | > 100 | 256 (≈ 162 µM) | 2 (≈ 1.27 µM) | > 100 | 256 (≈ 162 µM) | 4 (≈ 2.53 µM) | 4 (≈ 2.53 µM) | 4 (≈ 2.53 µM) | 8 (≈ 5.06 µM) | 4 (≈ 2.53 µM) | 16 | 61 | 52 | inhibition [8]: Active; MBC [14]: 256 µg/mL (≈ 162 µM); MIC [14]: 32 µg/mL (≈ 20.2 µM) |
| COC(=O)[C@@H]1NC(=O)[C@H]2NC(=O)[C@H](NC(=O)[C@@H]3NC(=O)[C@H]4NC(=O)[C@H](NC(=O)[C@H](n5cc(CO[C@H]6O[C@H](COC(C)=O)[C@@H](OC(C)=O)[C@H](OC(C)=O)[C@H]6NC(C)=O)nn5)c5ccc(O)c(c5)Oc5cc4cc(O)c5C)[C@H](O)c4ccc(cc4)Oc4cc3cc(c4O)Oc3ccc(cc3)[C@H]2O)c2ccc(O)c(c2)-c2c(O)cc(O)cc21 | 4 (≈ 2.52 µM) | 4 (≈ 2.52 µM) | 256 (≈ 161 µM) | 2 (≈ 1.26 µM) | 256 (≈ 161 µM) | 4 (≈ 2.52 µM) | 5.8 | > 100 | 64 (≈ 40.4 µM) | 1 (≈ 0.631 µM) | > 100 | 256 (≈ 161 µM) | 0.5 (≈ 0.315 µM) | 8 (≈ 5.05 µM) | 2 (≈ 1.26 µM) | 8 (≈ 5.05 µM) | 8 (≈ 5.05 µM) | 8 | > 100 | > 100 | MBC [14]: 256 µg/mL (≈ 161 µM); MIC [14]: 4 µg/mL (≈ 2.52 µM) |
| COC(=O)[C@@H]1NC(=O)[C@H]2NC(=O)[C@H](NC(=O)[C@@H]3NC(=O)[C@H]4NC(=O)[C@H](NC(=O)[C@H](n5cc(CO[C@H]6O[C@H](COC(C)=O)[C@@H](O[C@H]7O[C@H](COC(C)=O)[C@@H](OC(C)=O)[C@H](OC(C)=O)[C@H]7OC(C)=O)[C@H](OC(C)=O)[C@H]6OC(C)=O)nn5)c5ccc(O)c(c5)Oc5cc4cc(O)c5C)[C@H](O)c4ccc(cc4)Oc4cc3cc(c4O)Oc3ccc(cc3)[C@H]2O)c2ccc(O)c(c2)-c2c(O)cc(O)cc21 | 16 (≈ 8.53 µM) | 4 (≈ 2.13 µM) | 256 (≈ 137 µM) | 2 (≈ 1.07 µM) | 256 (≈ 137 µM) | 4 (≈ 2.13 µM) | > 100 | > 100 | 4 (≈ 2.13 µM) | 1 (≈ 0.533 µM) | > 100 | 4 (≈ 2.13 µM) | 1 (≈ 0.533 µM) | 8 (≈ 4.27 µM) | 8 (≈ 4.27 µM) | 8 (≈ 4.27 µM) | 4 (≈ 2.13 µM) | > 100 | > 100 | > 100 | MBC [14]: 256 µg/mL (≈ 137 µM); MIC [14]: 8 µg/mL (≈ 4.27 µM) |
| CCOC(=O)C1=C[C@@H](OC(CC)CC)[C@H](NC(C)=O)[C@@H](N)C1 [OSELTAMIVIR] | – | – | – | – | – | – | 11 | 38 | – | – | 32 | – | – | – | – | – | – | 12 | 27 | 23 | – |
| COC(=O)[C@@H]1NC(=O)[C@H]2NC(=O)[C@H](NC(=O)[C@@H]3NC(=O)[C@H]4NC(=O)[C@H](NC(=O)[C@H](n5cc(CO[C@@H]6O[C@@H](C)[C@H](OC(C)=O)[C@@H](OC(C)=O)[C@H]6OC(C)=O)nn5)c5ccc(O)c(c5)Oc5cc4cc(O)c5C)[C@H](O)c4ccc(cc4)Oc4cc3cc(c4O)Oc3ccc(cc3)[C@H]2O)c2ccc(O)c(c2)-c2c(O)cc(O)cc21 | 8 (≈ 5.23 µM) | 4 (≈ 2.62 µM) | 256 (≈ 167 µM) | 16 (≈ 10.5 µM) | 256 (≈ 167 µM) | 32 (≈ 20.9 µM) | > 100 | > 100 | 32 (≈ 20.9 µM) | 16 (≈ 10.5 µM) | > 100 | 32 (≈ 20.9 µM) | 16 (≈ 10.5 µM) | 32 (≈ 20.9 µM) | 32 (≈ 20.9 µM) | 4 (≈ 2.62 µM) | 4 (≈ 2.62 µM) | > 100 | > 100 | > 100 | MBC [14]: 256 µg/mL (≈ 167 µM); MIC [14]: 128 µg/mL (≈ 83.7 µM) |
| NC12CC3CC(CC(C3)C1)C2 [AMANTADINE] | – | – | – | – | – | – | 19 | 9.2 | – | – | 7 | – | – | – | – | – | – | 20 | > 500 | > 500 | – |
| CC(N)C12CC3CC(CC(C3)C1)C2 (stereo unspecified) [RIMANTADINE] | – | – | – | – | – | – | 283 | 5.6 | – | – | 4 | – | – | – | – | – | – | 224 | > 500 | > 500 | – |
| COC(=O)[C@@H]1NC(=O)[C@H]2NC(=O)[C@H](NC(=O)[C@@H]3NC(=O)[C@H]4NC(=O)[C@H](NC(=O)[C@H](n5cc(CO[C@H]6O[C@H](COC(C)=O)[C@@H](OC(C)=O)[C@H](OC(C)=O)[C@@H]6OC(C)=O)nn5)c5ccc(O)c(c5)Oc5cc4cc(O)c5C)[C@H](O)c4ccc(cc4)Oc4cc3cc(c4O)Oc3ccc(cc3)[C@H]2O)c2ccc(O)c(c2)-c2c(O)cc(O)cc21 | 4 (≈ 2.52 µM) | 2 (≈ 1.26 µM) | 128 (≈ 80.7 µM) | 2 (≈ 1.26 µM) | 128 (≈ 80.7 µM) | 4 (≈ 2.52 µM) | 5 | > 100 | 4 (≈ 2.52 µM) | 2 (≈ 1.26 µM) | > 100 | 4 (≈ 2.52 µM) | 2 (≈ 1.26 µM) | 8 (≈ 5.04 µM) | 4 (≈ 2.52 µM) | 4 (≈ 2.52 µM) | 4 (≈ 2.52 µM) | 4 | > 100 | > 100 | MBC [14]: 256 µg/mL (≈ 161 µM); MIC [14]: 8 µg/mL (≈ 5.04 µM) |
| COC(=O)[C@@H]1NC(=O)[C@H]2NC(=O)[C@H](NC(=O)[C@@H]3NC(=O)[C@H]4NC(=O)[C@H](NC(=O)[C@H](n5cc(CO[C@H]6O[C@H](COC(C)=O)[C@@H](OC(C)=O)[C@H](OC(C)=O)[C@H]6OC(C)=O)nn5)c5ccc(O)c(c5)Oc5cc4cc(O)c5C)[C@H](O)c4ccc(cc4)Oc4cc3cc(c4O)Oc3ccc(cc3)[C@H]2O)c2ccc(O)c(c2)-c2c(O)cc(O)cc21 | 16 (≈ 10.1 µM) | 16 (≈ 10.1 µM) | 256 (≈ 161 µM) | 8 (≈ 5.04 µM) | 256 (≈ 161 µM) | 8 (≈ 5.04 µM) | 8.2 | > 100 | 8 (≈ 5.04 µM) | 4 (≈ 2.52 µM) | > 100 | 8 (≈ 5.04 µM) | 4 (≈ 2.52 µM) | 16 (≈ 10.1 µM) | 8 (≈ 5.04 µM) | 16 (≈ 10.1 µM) | 8 (≈ 5.04 µM) | 9.5 | > 100 | > 100 | MBC [14]: 256 µg/mL (≈ 161 µM); MIC [14]: 16 µg/mL (≈ 10.1 µM) |
